In the kinase profiling compilation of Christmann-Franck et al. (2016):

Key:
Experiment in all cases: KINOMEscan competition binding
Conditions in all cases: compound 10.0 µM
SRPK1 (human) = SRPK1 (human) (UniProt Q96SB4)
ERBB2 (human) = ERBB2 (human) (UniProt P04626)
RPS6KA6 KD2 (human) = RPS6KA6 KD2 (human) (UniProt Q9UK32)
CAMK2B (human) = CAMK2B (human) (UniProt Q13554)
PRKCH (human) = PRKCH (human) (UniProt P24723)
MAP2K4 (human) = MAP2K4 (human) (UniProt P45985)
DMPK (human) = DMPK (human) (UniProt Q09013)
DMPK (human), sequence (Q09013 whole entry, looked up): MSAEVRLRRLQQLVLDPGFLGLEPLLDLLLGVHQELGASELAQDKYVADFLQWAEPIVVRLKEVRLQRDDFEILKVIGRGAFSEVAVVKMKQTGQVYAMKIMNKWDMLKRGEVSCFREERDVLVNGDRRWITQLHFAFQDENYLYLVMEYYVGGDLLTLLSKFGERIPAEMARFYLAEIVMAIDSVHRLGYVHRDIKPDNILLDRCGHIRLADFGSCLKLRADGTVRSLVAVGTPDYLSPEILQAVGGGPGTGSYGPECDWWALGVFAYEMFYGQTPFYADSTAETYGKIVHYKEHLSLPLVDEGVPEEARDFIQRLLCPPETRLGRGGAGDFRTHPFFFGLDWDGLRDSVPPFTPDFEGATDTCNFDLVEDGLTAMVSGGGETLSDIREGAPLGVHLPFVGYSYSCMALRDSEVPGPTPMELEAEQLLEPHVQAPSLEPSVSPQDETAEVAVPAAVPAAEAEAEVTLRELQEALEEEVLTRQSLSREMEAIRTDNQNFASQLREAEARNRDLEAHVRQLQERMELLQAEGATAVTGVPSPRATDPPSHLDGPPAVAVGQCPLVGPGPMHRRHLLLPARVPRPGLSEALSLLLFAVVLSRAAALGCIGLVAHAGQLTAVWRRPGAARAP

PLK3 (human) = PLK3 (human) (UniProt Q9H4B4)
CSNK1E (human) = CSNK1E (human) (UniProt P49674)
MST4 (human) = MST4 (human) (UniProt Q9P289)
CLK4 (human) = CLK4 (human) (UniProt Q9HAZ1)
FYN (human) = FYN (human) (UniProt P06241)
PLK1 (human) = PLK1 (human) (UniProt P53350)
MARK1 (human) = MARK1 (human) (UniProt Q9P0L2)
MARK1 (human), sequence (Q9P0L2 whole entry, looked up): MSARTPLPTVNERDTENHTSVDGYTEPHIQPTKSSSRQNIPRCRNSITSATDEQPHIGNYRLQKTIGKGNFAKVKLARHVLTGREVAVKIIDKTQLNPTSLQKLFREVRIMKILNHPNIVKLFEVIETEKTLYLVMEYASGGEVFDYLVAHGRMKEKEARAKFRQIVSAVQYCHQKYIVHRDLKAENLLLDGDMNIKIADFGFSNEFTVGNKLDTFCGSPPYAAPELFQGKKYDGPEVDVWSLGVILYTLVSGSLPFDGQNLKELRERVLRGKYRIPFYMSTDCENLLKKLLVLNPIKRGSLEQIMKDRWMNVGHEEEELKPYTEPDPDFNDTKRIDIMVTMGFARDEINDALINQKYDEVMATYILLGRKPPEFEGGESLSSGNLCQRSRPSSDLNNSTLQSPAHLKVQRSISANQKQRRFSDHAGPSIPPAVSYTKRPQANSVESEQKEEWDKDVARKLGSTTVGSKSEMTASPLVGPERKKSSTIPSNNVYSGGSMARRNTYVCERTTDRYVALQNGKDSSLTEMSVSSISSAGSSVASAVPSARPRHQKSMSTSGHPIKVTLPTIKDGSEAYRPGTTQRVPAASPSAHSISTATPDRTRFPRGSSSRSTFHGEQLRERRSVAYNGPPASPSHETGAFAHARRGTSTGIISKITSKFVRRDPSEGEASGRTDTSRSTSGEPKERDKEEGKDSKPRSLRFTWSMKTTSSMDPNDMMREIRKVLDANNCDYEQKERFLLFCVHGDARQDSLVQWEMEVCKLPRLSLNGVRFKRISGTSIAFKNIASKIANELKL

STK36 (human) = STK36 (human) (UniProt Q9NRP7)
PDGFRB (human) = PDGFRB (human) (UniProt P09619)
BMPR1A (human) = BMPR1A (human) (UniProt P36894)
TESK1 (human) = TESK1 (human) (UniProt Q15569)
TESK1 (human), sequence (Q15569 whole entry, looked up): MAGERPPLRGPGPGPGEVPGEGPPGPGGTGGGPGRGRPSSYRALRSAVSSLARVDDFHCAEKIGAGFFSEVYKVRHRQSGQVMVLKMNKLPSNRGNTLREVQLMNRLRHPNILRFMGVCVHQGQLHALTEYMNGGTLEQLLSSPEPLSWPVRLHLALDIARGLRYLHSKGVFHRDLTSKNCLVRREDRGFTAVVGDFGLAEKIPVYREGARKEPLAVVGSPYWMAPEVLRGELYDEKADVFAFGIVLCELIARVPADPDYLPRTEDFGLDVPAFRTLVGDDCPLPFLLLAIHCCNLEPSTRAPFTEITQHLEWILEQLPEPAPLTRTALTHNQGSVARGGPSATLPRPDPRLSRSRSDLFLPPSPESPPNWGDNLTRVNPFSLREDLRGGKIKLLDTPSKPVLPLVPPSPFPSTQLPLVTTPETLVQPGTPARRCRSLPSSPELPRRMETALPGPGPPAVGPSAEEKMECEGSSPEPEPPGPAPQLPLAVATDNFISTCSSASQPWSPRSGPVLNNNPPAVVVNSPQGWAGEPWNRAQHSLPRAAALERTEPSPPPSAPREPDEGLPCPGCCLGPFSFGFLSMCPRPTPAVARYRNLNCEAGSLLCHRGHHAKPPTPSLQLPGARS

ADCK3 (human) = ADCK3 (human) (UniProt Q8NI60)
TEK (human) = TEK (human) (UniProt Q02763)
MAP4K3 (human) = MAP4K3 (human) (UniProt Q8IVH8)
ACVR2A (human) = ACVR2A (human) (UniProt P27037)
CHUK (human) = CHUK (human) (UniProt O15111)
TLK1 (human) = TLK1 (human) (UniProt Q9UKI8)
RPS6KA5 KD2 (human) = RPS6KA5 KD2 (human) (UniProt O75582)
IKBKE (human) = IKBKE (human) (UniProt Q14164)
PAK7 (human) = PAK7 (human) (UniProt Q9P286)
PAK7 (human), sequence (Q9P286 whole entry, looked up): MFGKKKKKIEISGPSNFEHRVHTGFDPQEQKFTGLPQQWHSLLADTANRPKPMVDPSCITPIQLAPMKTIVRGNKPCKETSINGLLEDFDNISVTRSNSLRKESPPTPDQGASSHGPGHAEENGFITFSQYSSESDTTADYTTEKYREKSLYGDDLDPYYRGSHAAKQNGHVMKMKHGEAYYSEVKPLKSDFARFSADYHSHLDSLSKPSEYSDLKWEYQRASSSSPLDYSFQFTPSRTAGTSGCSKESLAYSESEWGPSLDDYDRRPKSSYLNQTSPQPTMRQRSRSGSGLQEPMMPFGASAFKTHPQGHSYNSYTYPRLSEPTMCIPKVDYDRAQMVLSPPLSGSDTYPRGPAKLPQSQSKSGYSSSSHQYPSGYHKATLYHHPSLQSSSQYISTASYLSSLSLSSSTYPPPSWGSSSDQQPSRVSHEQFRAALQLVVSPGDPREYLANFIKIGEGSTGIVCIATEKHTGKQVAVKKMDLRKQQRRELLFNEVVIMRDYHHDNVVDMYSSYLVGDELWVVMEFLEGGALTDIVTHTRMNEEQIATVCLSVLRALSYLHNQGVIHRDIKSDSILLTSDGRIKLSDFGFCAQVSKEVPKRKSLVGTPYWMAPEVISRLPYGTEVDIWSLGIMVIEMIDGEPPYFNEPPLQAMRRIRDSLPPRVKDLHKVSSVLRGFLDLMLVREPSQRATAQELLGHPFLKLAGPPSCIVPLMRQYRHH

EPHB2 (human) = EPHB2 (human) (UniProt P29323)
PTK2 (human) = PTK2 (human) (UniProt Q05397)
PRKD3 (human) = PRKD3 (human) (UniProt O94806)
PIM3 (human) = PIM3 (human) (UniProt Q86V86)
MAP2K1 (human) = MAP2K1 (human) (UniProt Q02750)
[1] = target: JAK2 JH1 catalytic (human) (UniProt O60674)
[2] = system: KIT (human), P10721 [V559D]
CHEK2 (human) = CHEK2 (human) (UniProt O96017)
CDC42BPA (human) = CDC42BPA (human) (UniProt Q5VT25)
CDC42BPA (human), sequence (Q5VT25 whole entry, looked up): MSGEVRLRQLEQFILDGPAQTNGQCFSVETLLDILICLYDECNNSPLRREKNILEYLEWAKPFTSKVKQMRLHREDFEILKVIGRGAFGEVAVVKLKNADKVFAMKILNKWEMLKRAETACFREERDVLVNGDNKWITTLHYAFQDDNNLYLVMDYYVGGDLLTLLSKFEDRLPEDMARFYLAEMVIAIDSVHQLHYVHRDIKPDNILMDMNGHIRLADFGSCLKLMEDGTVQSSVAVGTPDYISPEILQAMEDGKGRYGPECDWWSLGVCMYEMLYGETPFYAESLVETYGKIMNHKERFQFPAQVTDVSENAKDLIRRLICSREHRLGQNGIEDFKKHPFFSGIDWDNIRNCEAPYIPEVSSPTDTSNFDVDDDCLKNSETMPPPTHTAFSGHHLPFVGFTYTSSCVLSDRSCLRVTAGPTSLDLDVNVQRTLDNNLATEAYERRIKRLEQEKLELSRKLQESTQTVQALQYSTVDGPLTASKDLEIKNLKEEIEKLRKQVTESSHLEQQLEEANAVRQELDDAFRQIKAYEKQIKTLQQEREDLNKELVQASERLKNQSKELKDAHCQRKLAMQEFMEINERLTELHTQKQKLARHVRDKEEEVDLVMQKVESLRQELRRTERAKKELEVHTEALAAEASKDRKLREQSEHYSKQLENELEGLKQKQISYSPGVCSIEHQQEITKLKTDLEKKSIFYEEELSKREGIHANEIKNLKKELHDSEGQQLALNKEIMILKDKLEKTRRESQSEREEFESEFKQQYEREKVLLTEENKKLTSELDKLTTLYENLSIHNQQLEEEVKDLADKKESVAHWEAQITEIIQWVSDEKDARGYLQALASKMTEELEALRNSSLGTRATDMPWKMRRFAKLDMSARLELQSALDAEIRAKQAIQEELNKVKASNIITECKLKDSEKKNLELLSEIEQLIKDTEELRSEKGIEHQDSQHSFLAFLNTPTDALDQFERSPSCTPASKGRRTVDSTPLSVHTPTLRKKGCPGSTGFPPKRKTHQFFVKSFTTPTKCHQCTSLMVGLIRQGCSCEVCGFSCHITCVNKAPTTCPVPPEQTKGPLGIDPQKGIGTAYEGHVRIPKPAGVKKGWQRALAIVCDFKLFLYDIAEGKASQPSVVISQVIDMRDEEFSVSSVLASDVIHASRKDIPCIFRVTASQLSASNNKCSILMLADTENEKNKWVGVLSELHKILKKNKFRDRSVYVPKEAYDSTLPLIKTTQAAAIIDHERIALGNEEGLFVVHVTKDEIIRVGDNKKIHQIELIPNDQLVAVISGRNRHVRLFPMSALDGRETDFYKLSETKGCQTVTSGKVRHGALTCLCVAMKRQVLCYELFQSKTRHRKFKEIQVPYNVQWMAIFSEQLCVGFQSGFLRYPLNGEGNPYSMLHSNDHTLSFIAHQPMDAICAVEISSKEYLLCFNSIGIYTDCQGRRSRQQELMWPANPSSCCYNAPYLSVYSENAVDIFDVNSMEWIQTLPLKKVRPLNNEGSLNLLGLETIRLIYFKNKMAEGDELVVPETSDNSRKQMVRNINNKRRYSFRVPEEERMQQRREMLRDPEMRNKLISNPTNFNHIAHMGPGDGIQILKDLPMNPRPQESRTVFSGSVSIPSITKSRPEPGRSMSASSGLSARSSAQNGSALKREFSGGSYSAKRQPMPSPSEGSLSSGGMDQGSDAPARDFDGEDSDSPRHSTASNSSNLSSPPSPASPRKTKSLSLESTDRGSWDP

CDK5 (human) = CDK5 (human) (UniProt Q00535)
CDK5 (human), sequence (Q00535 whole entry, looked up): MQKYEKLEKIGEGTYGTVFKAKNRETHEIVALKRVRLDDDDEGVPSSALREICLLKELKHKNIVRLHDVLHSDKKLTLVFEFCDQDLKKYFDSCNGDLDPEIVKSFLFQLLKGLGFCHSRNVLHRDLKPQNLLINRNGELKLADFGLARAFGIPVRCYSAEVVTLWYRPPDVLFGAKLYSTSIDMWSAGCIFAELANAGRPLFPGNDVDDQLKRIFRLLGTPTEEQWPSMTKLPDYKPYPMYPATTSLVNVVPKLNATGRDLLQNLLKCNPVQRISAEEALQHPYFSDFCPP

CaMK1 (human) = CaMK1 (human) (UniProt Q14012)
RIOK3 (human) = RIOK3 (human) (UniProt O14730)
SGK110 (human) = SGK110 (human) (UniProt P0C264)

CN(C)C/C=C/C(=O)Nc1cccc(Nc2ncc3c(n2)N(C)c2ccccc2C(=O)N3C)c1
kinase still bound, per cent of control (SRPK1 (human)): 23%
kinase still bound, per cent of control (ERBB2 (human)): 65%
kinase still bound, per cent of control (RPS6KA6 KD2 (human)): 0.6%
kinase still bound, per cent of control (CAMK2B (human)): 40%
kinase still bound, per cent of control (PRKCH (human)): 100%
kinase still bound, per cent of control (MAP2K4 (human)): 100%
kinase still bound, per cent of control (DMPK (human)): 32%
kinase still bound, per cent of control (PLK3 (human)): 72%
kinase still bound, per cent of control (CSNK1E (human)): 75%
kinase still bound, per cent of control (MST4 (human)): 31%
kinase still bound, per cent of control (CLK4 (human)): 100%
kinase still bound, per cent of control (FYN (human)): 6.7%
kinase still bound, per cent of control (PLK1 (human)): 22%
kinase still bound, per cent of control (MARK1 (human)): 4.3%
kinase still bound, per cent of control (STK36 (human)): 100%
kinase still bound, per cent of control (PDGFRB (human)): 38%
kinase still bound, per cent of control (BMPR1A (human)): 0.65%
kinase still bound, per cent of control (TESK1 (human)): 100%
kinase still bound, per cent of control (ADCK3 (human)): 74%
kinase still bound, per cent of control (TEK (human)): 35%
kinase still bound, per cent of control (MAP4K3 (human)): 28%
kinase still bound, per cent of control (ACVR2A (human)): 57%
kinase still bound, per cent of control (CHUK (human)): 100%
kinase still bound, per cent of control (TLK1 (human)): 100%
kinase still bound, per cent of control (RPS6KA5 KD2 (human)): 80%
kinase still bound, per cent of control (IKBKE (human)): 100%
kinase still bound, per cent of control (PAK7 (human)): 36%
kinase still bound, per cent of control (EPHB2 (human)): 100%
kinase still bound, per cent of control (PTK2 (human)): 14%
kinase still bound, per cent of control (PRKD3 (human)): 19%
kinase still bound, per cent of control (PIM3 (human)): 100%
kinase still bound, per cent of control (MAP2K1 (human)): 82%
kinase still bound, per cent of control [1]: 0.75%
kinase still bound, per cent of control [2]: 54%
kinase still bound, per cent of control (CHEK2 (human)): 94%
kinase still bound, per cent of control (CDC42BPA (human)): 100%
kinase still bound, per cent of control (CDK5 (human)): 100%
kinase still bound, per cent of control (CaMK1 (human)): 49%
kinase still bound, per cent of control (RIOK3 (human)): 16%
kinase still bound, per cent of control (SGK110 (human)): 0.25%

COc1cc(C(=O)NC2CCN(C)CC2)ccc1Nc1ncc2c(n1)N(C1CCCC1)C(C)CC(=O)N2C (stereo not given)
kinase still bound, per cent of control (SRPK1 (human)): 100%
kinase still bound, per cent of control (ERBB2 (human)): 100%
kinase still bound, per cent of control (RPS6KA6 KD2 (human)): 12%
kinase still bound, per cent of control (CAMK2B (human)): 100%
kinase still bound, per cent of control (PRKCH (human)): 100%
kinase still bound, per cent of control (MAP2K4 (human)): 100%
kinase still bound, per cent of control (DMPK (human)): 100%
kinase still bound, per cent of control (PLK3 (human)): 0%
kinase still bound, per cent of control (CSNK1E (human)): 100%
kinase still bound, per cent of control (MST4 (human)): 100%
kinase still bound, per cent of control (CLK4 (human)): 100%
kinase still bound, per cent of control (FYN (human)): 100%
kinase still bound, per cent of control (PLK1 (human)): 19%
kinase still bound, per cent of control (MARK1 (human)): 100%
kinase still bound, per cent of control (STK36 (human)): 100%
kinase still bound, per cent of control (PDGFRB (human)): 100%
kinase still bound, per cent of control (BMPR1A (human)): 100%
kinase still bound, per cent of control (TESK1 (human)): 100%
kinase still bound, per cent of control (ADCK3 (human)): 100%
kinase still bound, per cent of control (TEK (human)): 100%
kinase still bound, per cent of control (MAP4K3 (human)): 100%
kinase still bound, per cent of control (ACVR2A (human)): 100%
kinase still bound, per cent of control (CHUK (human)): 100%
kinase still bound, per cent of control (TLK1 (human)): 100%
kinase still bound, per cent of control (RPS6KA5 KD2 (human)): 100%
kinase still bound, per cent of control (IKBKE (human)): 100%
kinase still bound, per cent of control (PAK7 (human)): 100%
kinase still bound, per cent of control (EPHB2 (human)): 100%
kinase still bound, per cent of control (PTK2 (human)): 0.4%
kinase still bound, per cent of control (PRKD3 (human)): 32%
kinase still bound, per cent of control (PIM3 (human)): 100%
kinase still bound, per cent of control (MAP2K1 (human)): 100%
kinase still bound, per cent of control [1]: 100%
kinase still bound, per cent of control [2]: 100%
kinase still bound, per cent of control (CHEK2 (human)): 100%
kinase still bound, per cent of control (CDC42BPA (human)): 100%
kinase still bound, per cent of control (CDK5 (human)): 100%
kinase still bound, per cent of control (CaMK1 (human)): 100%
kinase still bound, per cent of control (RIOK3 (human)): 100%
kinase still bound, per cent of control (SGK110 (human)): 100%

C[C@@H](Oc1cc(-n2cnc3ccc(CN4CCN(C)CC4)cc32)sc1C(N)=O)c1ccccc1C(F)(F)F
kinase still bound, per cent of control (SRPK1 (human)): 46%
kinase still bound, per cent of control (ERBB2 (human)): 68%
kinase still bound, per cent of control (RPS6KA6 KD2 (human)): 73%
kinase still bound, per cent of control (CAMK2B (human)): 19%
kinase still bound, per cent of control (PRKCH (human)): 90%
kinase still bound, per cent of control (MAP2K4 (human)): 86%
kinase still bound, per cent of control (DMPK (human)): 63%
kinase still bound, per cent of control (PLK3 (human)): 3.6%
kinase still bound, per cent of control (CSNK1E (human)): 100%
kinase still bound, per cent of control (MST4 (human)): 95%
kinase still bound, per cent of control (CLK4 (human)): 59%
kinase still bound, per cent of control (FYN (human)): 100%
kinase still bound, per cent of control (PLK1 (human)): 0.1%
kinase still bound, per cent of control (MARK1 (human)): 100%
kinase still bound, per cent of control (STK36 (human)): 98%
kinase still bound, per cent of control (PDGFRB (human)): 9.8%
kinase still bound, per cent of control (BMPR1A (human)): 28%
kinase still bound, per cent of control (TESK1 (human)): 100%
kinase still bound, per cent of control (ADCK3 (human)): 77%
kinase still bound, per cent of control (TEK (human)): 78%
kinase still bound, per cent of control (MAP4K3 (human)): 59%
kinase still bound, per cent of control (ACVR2A (human)): 100%
kinase still bound, per cent of control (CHUK (human)): 65%
kinase still bound, per cent of control (TLK1 (human)): 71%
kinase still bound, per cent of control (RPS6KA5 KD2 (human)): 34%
kinase still bound, per cent of control (IKBKE (human)): 58%
kinase still bound, per cent of control (PAK7 (human)): 60%
kinase still bound, per cent of control (EPHB2 (human)): 99%
kinase still bound, per cent of control (PTK2 (human)): 99%
kinase still bound, per cent of control (PRKD3 (human)): 12%
kinase still bound, per cent of control (PIM3 (human)): 11%
kinase still bound, per cent of control (MAP2K1 (human)): 92%
kinase still bound, per cent of control [1]: 87%
kinase still bound, per cent of control [2]: 38%
kinase still bound, per cent of control (CHEK2 (human)): 69%
kinase still bound, per cent of control (CDC42BPA (human)): 95%
kinase still bound, per cent of control (CDK5 (human)): 100%
kinase still bound, per cent of control (CaMK1 (human)): 90%
kinase still bound, per cent of control (RIOK3 (human)): 6.6%
kinase still bound, per cent of control (SGK110 (human)): 100%
